Measurements reported in PubChem BioAssay AID2060485 (Molecular Pharmacology Branch, DTP, NCI, 2025).

Tested on: A375 multi-cell spheroids with HUVEC/MSC, viability
Assay: Anticancer human tumor A375 cell line growth inhibition [GQUAD];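 further: spheroids exposed to compounds for seven days before readout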
Conditions: for IC50: curve of first compound; for viability, T/C: stronger effect = lower value
Method in brief: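 Tumor cells were grown as complex spheroids with HUVEC endothelial cells and mesenchymal stem cells as stroma. G-quadruplex stabilizers were combined with targeted agents over half-log dilutions from near the clinical Cmax, or from 10 microM.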

[1] = second compound 0.0316 µM, first compound 0.000999 µM
[2] = second compound 0.0316 µM, first compound 0.00316 µM
[3] = second compound 0.0316 µM, first compound 0.00999 µM
[4] = second compound 0.0316 µM, first compound 0.0316 µM
[5] = second compound 0.0316 µM, first compound 0.0999 µM
[6] = second compound 0.0316 µM, first compound 0.316 µM
[7] = second compound 0.1 µM, first compound 0.000999 µM
[8] = second compound 0.1 µM, first compound 0.00316 µM
[9] = second compound 0.1 µM, first compound 0.00999 µM
[10] = second compound 0.1 µM, first compound 0.0316 µM
[11] = second compound 0.1 µM, first compound 0.0999 µM
[12] = second compound 0.1 µM, first compound 0.316 µM
[13] = second compound 0.316 µM, first compound 0.000999 µM
[14] = second compound 0.316 µM, first compound 0.00316 µM
[15] = second compound 0.316 µM, first compound 0.00999 µM
[16] = second compound 0.316 µM, first compound 0.0316 µM
[17] = second compound 0.316 µM, first compound 0.0999 µM
[18] = second compound 0.316 µM, first compound 0.316 µM
[19] = second compound 1 µM, first compound 0.000999 µM
[20] = second compound 1 µM, first compound 0.00316 µM
[21] = second compound 1 µM, first compound 0.00999 µM
[22] = second compound 1 µM, first compound 0.0316 µM
[23] = second compound 1 µM, first compound 0.0999 µM
[24] = second compound 1 µM, first compound 0.316 µM
[25] = second compound 3.16 µM, first compound 0.000999 µM
[26] = second compound 3.16 µM, first compound 0.00316 µM
[27] = second compound 3.16 µM, first compound 0.00999 µM
[28] = second compound 3.16 µM, first compound 0.0316 µM
[29] = second compound 3.16 µM, first compound 0.0999 µM
[30] = second compound 3.16 µM, first compound 0.316 µM
[31] = second compound 10 µM, first compound 0.000999 µM
[32] = second compound 10 µM, first compound 0.00316 µM
[33] = second compound 10 µM, first compound 0.00999 µM
[34] = second compound 10 µM, first compound 0.0316 µM
[35] = second compound 10 µM, first compound 0.0999 µM
[36] = second compound 10 µM, first compound 0.316 µM
[37] = second compound 0.0316 µM, first compound 0.1 µM
[38] = second compound 0.0316 µM, first compound 1 µM
[39] = second compound 0.0316 µM, first compound 3.16 µM
[40] = second compound 0.0316 µM, first compound 10 µM
[41] = second compound 0.1 µM, first compound 0.1 µM
[42] = second compound 0.1 µM, first compound 1 µM
[43] = second compound 0.1 µM, first compound 3.16 µM
[44] = second compound 0.1 µM, first compound 10 µM
[45] = second compound 0.316 µM, first compound 0.1 µM
[46] = second compound 0.316 µM, first compound 1 µM
[47] = second compound 0.316 µM, first compound 3.16 µM
[48] = second compound 0.316 µM, first compound 10 µM
[49] = second compound 1 µM, first compound 0.1 µM
[50] = second compound 1 µM, first compound 1 µM
[51] = second compound 1 µM, first compound 3.16 µM
[52] = second compound 1 µM, first compound 10 µM
[53] = second compound 3.16 µM, first compound 0.1 µM
[54] = second compound 3.16 µM, first compound 1 µM
[55] = second compound 3.16 µM, first compound 3.16 µM
[56] = second compound 3.16 µM, first compound 10 µM
[57] = second compound 10 µM, first compound 0.1 µM
[58] = second compound 10 µM, first compound 1 µM
[59] = second compound 10 µM, first compound 3.16 µM
[60] = second compound 10 µM, first compound 10 µM

## Cn1ncnc1[C@H]1c2n[nH]c(=O)c3cc(F)cc(c23)N[C@@H]1c1ccc(F)cc1 + CN(C)c1ccc(Nc2c3ccc(NC(=O)CCN4CCCC4)cc3nc3cc(NC(=O)CCN4CCCC4)ccc23)cc1
Second compound 0.0316 µM
  IC50: > 316 nM
Second compound 0.1 µM
  IC50: > 316 nM
Second compound 0.316 µM
  IC50: > 316 nM
Second compound 1 µM
  IC50: > 316 nM
Second compound 3.16 µM
  IC50: > 316 nM
Second compound 10 µM
  IC50: > 316 nM
[1]
  viability, T/C: 96.8%
[2]
  viability, T/C: 104%
[3]
  viability, T/C: 105%
[4]
  viability, T/C: 104%
[5]
  viability, T/C: 105%
[6]
  viability, T/C: 97.1%
[7]
  viability, T/C: 102%
[8]
  viability, T/C: 102%
[9]
  viability, T/C: 97.2%
[10]
  viability, T/C: 101%
[11]
  viability, T/C: 103%
[12]
  viability, T/C: 84.7%
[13]
  viability, T/C: 115%
[14]
  viability, T/C: 93.6%
[15]
  viability, T/C: 101%
[16]
  viability, T/C: 110%
[17]
  viability, T/C: 107%
[18]
  viability, T/C: 98.8%
[19]
  viability, T/C: 111%
[20]
  viability, T/C: 105%
[21]
  viability, T/C: 101%
[22]
  viability, T/C: 110%
[23]
  viability, T/C: 116%
[24]
  viability, T/C: 110%
[25]
  viability, T/C: 107%
[26]
  viability, T/C: 98%
[27]
  viability, T/C: 99.8%
[28]
  viability, T/C: 105%
[29]
  viability, T/C: 106%
[30]
  viability, T/C: 106%
[31]
  viability, T/C: 98.3%
[32]
  viability, T/C: 97.5%
[33]
  viability, T/C: 97.1%
[34]
  viability, T/C: 107%
[35]
  viability, T/C: 104%
[36]
  viability, T/C: 97.9%

## O=C(NO)c1cnc(N2CCN(S(=O)(=O)c3ccc4ccccc4c3)CC2)nc1 + Cc1[nH]c2ccc(F)cc2c1-c1nc2c3cccnc3c3ncccc3c2[nH]1
Second compound 0.0316 µM
  IC50: 203 nM
Second compound 0.1 µM
  IC50: 445 nM
Second compound 0.316 µM
  IC50: 507 nM
Second compound 1 µM
  IC50: 447 nM
Second compound 3.16 µM
  IC50: 202 nM
Second compound 10 µM
  IC50: 251 nM
[4]
  viability, T/C: 104%
[37]
  viability, T/C: 113%
[6]
  viability, T/C: 13.4%
[38]
  viability, T/C: 0.27%
[39]
  viability, T/C: 0.25%
[40]
  viability, T/C: 0.27%
[10]
  viability, T/C: 105%
[41]
  viability, T/C: 119%
[12]
  viability, T/C: 71%
[42]
  viability, T/C: 0.27%
[43]
  viability, T/C: 0.8%
[44]
  viability, T/C: 0.26%
[16]
  viability, T/C: 106%
[45]
  viability, T/C: 112%
[18]
  viability, T/C: 84.5%
[46]
  viability, T/C: 0.24%
[47]
  viability, T/C: 0.19%
[48]
  viability, T/C: 0.23%
[22]
  viability, T/C: 109%
[49]
  viability, T/C: 106%
[24]
  viability, T/C: 71.3%
[50]
  viability, T/C: 0.21%
[51]
  viability, T/C: 0.15%
[52]
  viability, T/C: 0.23%
[28]
  viability, T/C: 96.3%
[53]
  viability, T/C: 89.5%
[30]
  viability, T/C: 24.7%
[54]
  viability, T/C: 0.19%
[55]
  viability, T/C: 0.16%
[56]
  viability, T/C: 0.22%
[34]
  viability, T/C: 111%
[57]
  viability, T/C: 105%
[36]
  viability, T/C: 36.2%
[58]
  viability, T/C: 0.21%
[59]
  viability, T/C: 0.21%
[60]
  viability, T/C: 0.25%

## CCCS(=O)(=O)Nc1ccc(F)c(C(=O)c2c[nH]c3ncc(-c4ccc(Cl)cc4)cc23)c1F + CN(C)c1ccc(Nc2c3ccc(NC(=O)CCN4CCCC4)cc3nc3cc(NC(=O)CCN4CCCC4)ccc23)cc1
Second compound 0.0316 µM
  IC50: < 31.6 nM
Second compound 0.1 µM
  IC50: < 31.6 nM
Second compound 0.316 µM
  IC50: < 31.6 nM
Second compound 1 µM
  IC50: < 31.6 nM
Second compound 3.16 µM
  IC50: < 31.6 nM
Second compound 10 µM
  IC50: < 31.6 nM
[4]
  viability, T/C: 40.3%
[37]
  viability, T/C: 14.1%
[6]
  viability, T/C: 8.13%
[38]
  viability, T/C: 6.52%
[39]
  viability, T/C: 4.92%
[40]
  viability, T/C: 5.69%
[10]
  viability, T/C: 45%
[41]
  viability, T/C: 14.1%
[12]
  viability, T/C: 7.72%
[42]
  viability, T/C: 6.32%
[43]
  viability, T/C: 5.28%
[44]
  viability, T/C: 5.54%
[16]
  viability, T/C: 39.4%
[45]
  viability, T/C: 14.7%
[18]
  viability, T/C: 8.27%
[46]
  viability, T/C: 6.77%
[47]
  viability, T/C: 4.48%
[48]
  viability, T/C: 4.46%
[22]
  viability, T/C: 34.9%
[49]
  viability, T/C: 15%
[24]
  viability, T/C: 7.95%
[50]
  viability, T/C: 6.06%
[51]
  viability, T/C: 4.78%
[52]
  viability, T/C: 2.9%
[28]
  viability, T/C: 36.5%
[53]
  viability, T/C: 14.8%
[30]
  viability, T/C: 6.95%
[54]
  viability, T/C: 5.84%
[55]
  viability, T/C: 4.55%
[56]
  viability, T/C: 0.61%
[34]
  viability, T/C: 36.9%
[57]
  viability, T/C: 12.4%
[36]
  viability, T/C: 7%
[58]
  viability, T/C: 5.45%
[59]
  viability, T/C: 4.34%
[60]
  viability, T/C: 0.17%

## CCc1c2c(nc3ccc(O)cc13)-c1cc3c(c(=O)n1C2)COC(=O)[C@]3(O)CC + CN(C)c1ccc(Nc2c3ccc(NC(=O)CCN4CCCC4)cc3nc3cc(NC(=O)CCN4CCCC4)ccc23)cc1
Second compound 0.0316 µM
  IC50: < 0.999 nM
Second compound 0.1 µM
  IC50: < 0.999 nM
Second compound 0.316 µM
  IC50: < 0.999 nM
Second compound 1 µM
  IC50: < 0.999 nM
Second compound 3.16 µM
  IC50: < 0.999 nM
Second compound 10 µM
  IC50: < 0.999 nM
[1]
  viability, T/C: 41.2%
[2]
  viability, T/C: 16.1%
[3]
  viability, T/C: 10.6%
[4]
  viability, T/C: 15%
[5]
  viability, T/C: 5.91%
[6]
  viability, T/C: 0.85%
[7]
  viability, T/C: 39%
[8]
  viability, T/C: 14.4%
[9]
  viability, T/C: 11.6%
[10]
  viability, T/C: 13.6%
[11]
  viability, T/C: 5.7%
[12]
  viability, T/C: 0.92%
[13]
  viability, T/C: 40.8%
[14]
  viability, T/C: 14.2%
[15]
  viability, T/C: 11.6%
[16]
  viability, T/C: 15.8%
[17]
  viability, T/C: 5.11%
[18]
  viability, T/C: 1.17%
[19]
  viability, T/C: 44.3%
[20]
  viability, T/C: 17.9%
[21]
  viability, T/C: 12.2%
[22]
  viability, T/C: 15.3%
[23]
  viability, T/C: 5%
[24]
  viability, T/C: 0.92%
[25]
  viability, T/C: 45.6%
[26]
  viability, T/C: 14.8%
[27]
  viability, T/C: 10.9%
[28]
  viability, T/C: 12.6%
[29]
  viability, T/C: 6.28%
[30]
  viability, T/C: 1.02%
[31]
  viability, T/C: 46.9%
[32]
  viability, T/C: 18.2%
[33]
  viability, T/C: 10.9%
[34]
  viability, T/C: 13%
[35]
  viability, T/C: 6.82%
[36]
  viability, T/C: 0.96%
